From the supplement of paper PMC11208160 come the findings set out here.

This data set in a line: recombinant barcode read abundance after kanamycin selection (control-corrected) (log10(CPM+1)); higher = more efficient recombination; sequences stand for … in AGTGCAGAGAAAATCGGCCAGTTTTCTCTGCCTGCAGTCCGCATGCCGT…ATTTATGCAGCGGACTGCCTTTCTCCCAAAGTGATAAACCGGACAGTATCATGGACCGGTTTTCCCGGTAATCCGTATTTGCAAGGTTGGTTTCACT; site = the 11-nt target. The protocol: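 Same pooled E. coli target screen (IS621 bridge recombinase, kanamycin selection, control-corrected CPM, mean of 2 biological replicates). Here the two core-binding nucleotides of the LTG and RTG of the bridge RNA target-binding loop are mutated. Target and donor CT cores are held constant, and the other 9 guide positions match the target. The target is read from the library oligo sequence. Molecule = full bridge RNA written as DNA: nt 1-80 from the library oligo, rest WT scaffold.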

On to “AGGAGGTAATGGGTTCTAACCTGTTGCCTTT [AGGAGGTCTAG_LTGcore_AA_RTGcore_AA] (site AGGAGGTCTAG) (LTG core: AA, RTG core: AA)”, for which the “recombinant barcode read abundance (log10)” value was found to be 0.0693.

“AGGAGGTAGTGGGTTCTAACCTGTTGCCTCT [AGGAGGTCTAG_LTGcore_AG_RTGcore_AG] (site AGGAGGTCTAG) (LTG core: AG, RTG core: AG)”: the “recombinant barcode read abundance (log10)” value is 0.0957. To “AGGAGGTATTGGGTTCTAACCTGTTGCCTAG [AGGAGGTCTAG_LTGcore_AT_RTGcore_CT] (site AGGAGGTCTAG) (LTG core: AT, RTG core: CT)” belongs 0.214. For “AGGAGGTCCTGGGTTCTAACCTGTTGCCTAG [AGGAGGTCTAG_LTGcore_CC_RTGcore_CT] (site AGGAGGTCTAG) (LTG core: CC, RTG core: CT)”, the “recombinant barcode read abundance (log10)” value came to 0.336. To “AGGAGGTCGTGGGTTCTAACCTGTTGCCTAG [AGGAGGTCTAG_LTGcore_CG_RTGcore_CT] (site AGGAGGTCTAG) (LTG core: CG, RTG core: CT)” belongs 0.0327. To “AGGAGGTCTTGGGTTCTAACCTGTTGCCTCC [AGGAGGTCTAG_LTGcore_CT_RTGcore_GG] (site AGGAGGTCTAG) (LTG core: CT, RTG core: GG)” belongs 0.0685; to “AGGAGGTCTTGGGTTCTAACCTGTTGCCTCT [AGGAGGTCTAG_LTGcore_CT_RTGcore_AG] (site AGGAGGTCTAG) (LTG core: CT, RTG core: AG)”, 1.02.

On to “AGGAGGTCTTGGGTTCTAACCTGTTGCCTGA [AGGAGGTCTAG_LTGcore_CT_RTGcore_TC] (site AGGAGGTCTAG) (LTG core: CT, RTG core: TC)”, for which the “recombinant barcode read abundance (log10)” value stood at 0.643. To “AGGAGGTCTTGGGTTCTAACCTGTTGCCTTC [AGGAGGTCTAG_LTGcore_CT_RTGcore_GA] (site AGGAGGTCTAG) (LTG core: CT, RTG core: GA)” belongs 0.107; to “AGGAGGTGCTGGGTTCTAACCTGTTGCCTAG [AGGAGGTCTAG_LTGcore_GC_RTGcore_CT] (site AGGAGGTCTAG) (LTG core: GC, RTG core: CT)”, 0.292; to “AGGAGGTGCTGGGTTCTAACCTGTTGCCTGC [AGGAGGTCTAG_LTGcore_GC_RTGcore_GC] (site AGGAGGTCTAG) (LTG core: GC, RTG core: GC)”, 0.911. To “AGGAGGTTATGGGTTCTAACCTGTTGCCTTA [AGGAGGTCTAG_LTGcore_TA_RTGcore_TA] (site AGGAGGTCTAG) (LTG core: TA, RTG core: TA)” belongs 0.209; to “AGGAGGTTCTGGGTTCTAACCTGTTGCCTAG [AGGAGGTCTAG_LTGcore_TC_RTGcore_CT] (site AGGAGGTCTAG) (LTG core: TC, RTG core: CT)”, 0.0562; to “AGGAGGTTTTGGGTTCTAACCTGTTGCCTAA [AGGAGGTCTAG_LTGcore_TT_RTGcore_TT] (site AGGAGGTCTAG) (LTG core: TT, RTG core: TT)”, 0.218.

On to “AGGCCTCATTGGGTTCTAACCTGTTGCCTAT [AGGCCTCCTAG_LTGcore_AT_RTGcore_AT] (site AGGCCTCCTAG) (LTG core: AT, RTG core: AT)”, for which the “recombinant barcode read abundance (log10)” value came to 0.0616.

For “AGGCCTCCGTGGGTTCTAACCTGTTGCCTAG [AGGCCTCCTAG_LTGcore_CG_RTGcore_CT] (site AGGCCTCCTAG) (LTG core: CG, RTG core: CT)”, the “recombinant barcode read abundance (log10)” value was determined as 0.0631. To “AGGCCTCCGTGGGTTCTAACCTGTTGCCTCG [AGGCCTCCTAG_LTGcore_CG_RTGcore_CG] (site AGGCCTCCTAG) (LTG core: CG, RTG core: CG)” belongs 0.0742; to “AGGCCTCCTTGGGTTCTAACCTGTTGCCTTA [AGGCCTCCTAG_LTGcore_CT_RTGcore_TA] (site AGGCCTCCTAG) (LTG core: CT, RTG core: TA)”, 0.635; to “AGGCCTCGCTGGGTTCTAACCTGTTGCCTAG [AGGCCTCCTAG_LTGcore_GC_RTGcore_CT] (site AGGCCTCCTAG) (LTG core: GC, RTG core: CT)”, 0.224. To “AGGCCTCGGTGGGTTCTAACCTGTTGCCTAG [AGGCCTCCTAG_LTGcore_GG_RTGcore_CT] (site AGGCCTCCTAG) (LTG core: GG, RTG core: CT)” belongs 1.04; to “AGGCCTCTATGGGTTCTAACCTGTTGCCTTA [AGGCCTCCTAG_LTGcore_TA_RTGcore_TA] (site AGGCCTCCTAG) (LTG core: TA, RTG core: TA)”, 0.0149.

On to “AGGCCTCTGTGGGTTCTAACCTGTTGCCTCA [AGGCCTCCTAG_LTGcore_TG_RTGcore_TG] (site AGGCCTCCTAG) (LTG core: TG, RTG core: TG)”, for which the “recombinant barcode read abundance (log10)” value was determined as 0.186. To “AGGCGGGAATGGGTTCTAACCTGTTGCGGTT [AGGCGGGCTCC_LTGcore_AA_RTGcore_AA] (site AGGCGGGCTCC) (LTG core: AA, RTG core: AA)” belongs 0.154; to “AGGCGGGCCTGGGTTCTAACCTGTTGCGGAG [AGGCGGGCTCC_LTGcore_CC_RTGcore_CT] (site AGGCGGGCTCC) (LTG core: CC, RTG core: CT)”, 1.48. To “AGGCGGGCGTGGGTTCTAACCTGTTGCGGAG [AGGCGGGCTCC_LTGcore_CG_RTGcore_CT] (site AGGCGGGCTCC) (LTG core: CG, RTG core: CT)” belongs 2.17; to “AGGCGGGCTTGGGTTCTAACCTGTTGCGGAG [AGGCGGGCTCC_LTGcore_CT_RTGcore_CT] (site AGGCGGGCTCC) (LTG core: CT, RTG core: CT)”, 1.66. To “AGGCGGGGCTGGGTTCTAACCTGTTGCGGGC [AGGCGGGCTCC_LTGcore_GC_RTGcore_GC] (site AGGCGGGCTCC) (LTG core: GC, RTG core: GC)” belongs 0.0608; to “AGGCGGGTGTGGGTTCTAACCTGTTGCGGAG [AGGCGGGCTCC_LTGcore_TG_RTGcore_CT] (site AGGCGGGCTCC) (LTG core: TG, RTG core: CT)”, 0.159; to “AGGCGGTAGTGGGTTCTAACCTGTTGCTTAG [AGGCGGTCTAA_LTGcore_AG_RTGcore_CT] (site AGGCGGTCTAA) (LTG core: AG, RTG core: CT)”, 0.187. On to “AGGCGGTAGTGGGTTCTAACCTGTTGCTTCT [AGGCGGTCTAA_LTGcore_AG_RTGcore_AG] (site AGGCGGTCTAA) (LTG core: AG, RTG core: AG)”, for which the “recombinant barcode read abundance (log10)” value is 0.197. “AGGCGGTCTTGGGTTCTAACCTGTTGCTTAG [AGGCGGTCTAA_LTGcore_CT_RTGcore_CT] (site AGGCGGTCTAA) (LTG core: CT, RTG core: CT)”: the “recombinant barcode read abundance (log10)” value came to 2.29. To “AGGCGGTCTTGGGTTCTAACCTGTTGCTTAT [AGGCGGTCTAA_LTGcore_CT_RTGcore_AT] (site AGGCGGTCTAA) (LTG core: CT, RTG core: AT)” belongs 0.144. On to “AGGCGGTCTTGGGTTCTAACCTGTTGCTTCT [AGGCGGTCTAA_LTGcore_CT_RTGcore_AG] (site AGGCGGTCTAA) (LTG core: CT, RTG core: AG)”, for which the “recombinant barcode read abundance (log10)” value turned out to be 0.284. For the sequence “AGGCGGTCTTGGGTTCTAACCTGTTGCTTTC [AGGCGGTCTAA_LTGcore_CT_RTGcore_GA] (site AGGCGGTCTAA) (LTG core: CT, RTG core: GA)”, the “recombinant barcode read abundance (log10)” value was determined as 0.389. “AGGCGGTCTTGGGTTCTAACCTGTTGCTTTG [AGGCGGTCTAA_LTGcore_CT_RTGcore_CA] (site AGGCGGTCTAA) (LTG core: CT, RTG core: CA)”: the “recombinant barcode read abundance (log10)” value was 0.0581. For the sequence “AGGCGGTGCTGGGTTCTAACCTGTTGCTTGC [AGGCGGTCTAA_LTGcore_GC_RTGcore_GC] (site AGGCGGTCTAA) (LTG core: GC, RTG core: GC)”, the “recombinant barcode read abundance (log10)” value stood at 0.104. To “AGGCGGTGGTGGGTTCTAACCTGTTGCTTAG [AGGCGGTCTAA_LTGcore_GG_RTGcore_CT] (site AGGCGGTCTAA) (LTG core: GG, RTG core: CT)” belongs 0.074; to “AGGCGGTGGTGGGTTCTAACCTGTTGCTTCC [AGGCGGTCTAA_LTGcore_GG_RTGcore_GG] (site AGGCGGTCTAA) (LTG core: GG, RTG core: GG)”, 0.0144; to “AGGCGGTTGTGGGTTCTAACCTGTTGCTTCA [AGGCGGTCTAA_LTGcore_TG_RTGcore_TG] (site AGGCGGTCTAA) (LTG core: TG, RTG core: TG)”, 0.0951. To “AGTCTTAAATGGGTTCTAACCTGTTGCCATT [AGTCTTACTTG_LTGcore_AA_RTGcore_AA] (site AGTCTTACTTG) (LTG core: AA, RTG core: AA)” belongs 0.0761.

With “AGTCTTACATGGGTTCTAACCTGTTGCCATG [AGTCTTACTTG_LTGcore_CA_RTGcore_CA] (site AGTCTTACTTG) (LTG core: CA, RTG core: CA)”, the “recombinant barcode read abundance (log10)” value is 0.21.
